Data on 19 compounds can be found in the supplement of paper PMC8967900.

The structures appear in SMILES notation.
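Also: ALL cell lines in 384-well plates, five doses spanning 10,000-fold, each plate scaled between vehicle and 100 µmol/L benzalkonium chloride controls, sDSS an adapted area-under-curve metric.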

The subject of one experiment is MHH-CALL-2. Kind of experiment: selective drug sensitivity score (sDSS, relative to normal bone marrow) (sDSS (score)); higher = more potent and effective on the cell line relative to normal bone marrow cells. The settings on record: 72 h.
As for `Cc1c(-c2ccc(N3CCc4cccc(C(=O)Nc5nc6ccccc6s5)c4C3)nc2C(=O)O)cnn1CC12CC3CC(CC(C3)C1)C2` (top concentration 1000 nM), the “selective drug sensitivity score” value is -1.26.

For the compound `O=C(NOC[C@H](O)CO)c1ccc(F)c(F)c1Nc1ccc(I)cc1F` (top concentration 1000 nM), the “selective drug sensitivity score” value is -0.36.

In the case of `CO[C@@H](C)Cn1c(=O)n(C)c2cnc3ccc(-c4cncc(C(C)(C)O)c4)cc3c21` (top concentration 2500 nM), the “selective drug sensitivity score” value was 6.98.

On to `Cc1cccc(CC(=O)N2CCc3c2ccc(-c2cn(C)c4ncnc(N)c24)c3F)n1` (top concentration 2500 nM), for which the “selective drug sensitivity score” value came to 5.02.

For `CNC(=O)c1ccccc1Nc1nc(Nc2ccc3c(c2OC)CCC[C@H](N2CCN(CCO)CC2)C3)ncc1Cl` (top concentration 5000 nM), the “selective drug sensitivity score” value was 1.66.

As to `COc1cc2ncnc(Oc3cccc(NC(=O)Nc4cc(C(C)(C)C(F)(F)F)on4)c3)c2cc1OC` (top concentration 10000 nM), the “selective drug sensitivity score” value stood at 4.2.

As for `C[C@@H](Oc1cc(-n2cnc3ccc(CN4CCN(C)CC4)cc32)sc1C(N)=O)c1ccccc1C(F)(F)F` (top concentration 10000 nM), the “selective drug sensitivity score” value was 18.4.

With `Nc1nccc(-c2c(-c3ccc(F)cc3)ncn2C2CCCCC2)n1` (top concentration 10000 nM), the “selective drug sensitivity score” value was determined as 4.1.

Turning to `O=C(O)c1ccc(-c2c[nH]c3ncc(-c4ccccc4)cc23)cc1C1CCCC1` (top concentration 10000 nM), the “selective drug sensitivity score” value was 11.7.

Take `C[C@@H]1CN(CC(=O)Nc2ccc3c(c2)Cc2cccc(-c4cc(=O)cc(N5CCOCC5)o4)c2S3)C[C@H](C)O1` (top concentration 25000 nM): the “selective drug sensitivity score” value amounted to 0.92.

Consider `COc1ccc2[nH]cc(/C=C3\C(=O)Nc4ccc(NC(=O)CCN5CCCCC5)cc43)c2c1` (top concentration 50000 nM), for which the “selective drug sensitivity score” value is -2.82.

Consider `Cc1nn(C)c(COc2ccc(N3CCN(S(=O)(=O)N(C)C)CC3)cc2)c1-c1cccc2c(CCCOc3cccc4ccccc34)c(C(=O)O)n(CCN3CCOCC3)c12` (top concentration 50000 nM), for which the “selective drug sensitivity score” value came out at 7.86.

With `C[C@H](Nc1ncnc2[nH]cnc12)c1cc2ccc(F)cc2nc1-c1ccccn1` [AMG319] (top concentration 1000 nM), the “selective drug sensitivity score” value was -1.42.

Consider `C=CCn1c(=O)c2cnc(Nc3ccc(N4CCN(C)CC4)cc3)nc2n1-c1cccc(C(C)(C)O)n1` [AZD1775] (top concentration 10000 nM), for which the “selective drug sensitivity score” value turned out to be 10.5.

Take `NC(=O)Nc1cc(-c2cccc(F)c2)sc1C(=O)N[C@H]1CCCNC1` [AZD7762] (top concentration 1000 nM): the “selective drug sensitivity score” value amounted to 5.1.

Take `Cc1cc([C@@H](C)Nc2ccccc2C(=O)O)c2nc(N3CCOCC3)cc(=O)n2c1` [AZD-6482] (top concentration 2500 nM): the “selective drug sensitivity score” value was determined as 2.82.

For `CN(C)Cc1c(C(=O)NCCOc2ccc(C(=O)NO)cc2)oc2ccccc12` [Abexinostat] (top concentration 10000 nM), the “selective drug sensitivity score” value was 9.06.

Regarding `S=C(NCc1ccc2c(c1)OCO2)N1CCN(c2ncnc3c2oc2ccccc23)CC1` [Amuvatinib] (top concentration 10000 nM), the “selective drug sensitivity score” value stood at 3.66.

For the compound `CC(=O)OC[C@H]1O[C@@H]([S-])[C@H](OC(C)=O)[C@@H](OC(C)=O)[C@@H]1OC(C)=O.CCP(CC)CC.[Au+]` [Auranofin] (top concentration 2500 nM), the “selective drug sensitivity score” value is 8.14.

For another experiment, the system named is MHH-CALL-4. Described as above. The settings on record: 72 h.
In the case of `Cc1c(-c2ccc(N3CCc4cccc(C(=O)Nc5nc6ccccc6s5)c4C3)nc2C(=O)O)cnn1CC12CC3CC(CC(C3)C1)C2` (top concentration 1000 nM), the “selective drug sensitivity score” value is 2.24.

Take `O=C(NOC[C@H](O)CO)c1ccc(F)c(F)c1Nc1ccc(I)cc1F` (top concentration 1000 nM): the “selective drug sensitivity score” value is 6.24.

Take `CO[C@@H](C)Cn1c(=O)n(C)c2cnc3ccc(-c4cncc(C(C)(C)O)c4)cc3c21` (top concentration 2500 nM): the “selective drug sensitivity score” value is 1.08.

For `Cc1cccc(CC(=O)N2CCc3c2ccc(-c2cn(C)c4ncnc(N)c24)c3F)n1` (top concentration 2500 nM), the “selective drug sensitivity score” value worked out at 4.22.

As for `CNC(=O)c1ccccc1Nc1nc(Nc2ccc3c(c2OC)CCC[C@H](N2CCN(CCO)CC2)C3)ncc1Cl` (top concentration 5000 nM), the “selective drug sensitivity score” value was -0.94.

`COc1cc2ncnc(Oc3cccc(NC(=O)Nc4cc(C(C)(C)C(F)(F)F)on4)c3)c2cc1OC` (top concentration 10000 nM): the “selective drug sensitivity score” value came to 3.4.

In the case of `C[C@@H](Oc1cc(-n2cnc3ccc(CN4CCN(C)CC4)cc32)sc1C(N)=O)c1ccccc1C(F)(F)F` (top concentration 10000 nM), the “selective drug sensitivity score” value is -3.18.

As for `Nc1nccc(-c2c(-c3ccc(F)cc3)ncn2C2CCCCC2)n1` (top concentration 10000 nM), the “selective drug sensitivity score” value came out at 0.

Consider `O=C(O)c1ccc(-c2c[nH]c3ncc(-c4ccccc4)cc23)cc1C1CCCC1` (top concentration 10000 nM), for which the “selective drug sensitivity score” value is -1.44.

On to `C[C@@H]1CN(CC(=O)Nc2ccc3c(c2)Cc2cccc(-c4cc(=O)cc(N5CCOCC5)o4)c2S3)C[C@H](C)O1` (top concentration 25000 nM), for which the “selective drug sensitivity score” value was found to be 0.12.

In the case of `COc1ccc2[nH]cc(/C=C3\C(=O)Nc4ccc(NC(=O)CCN5CCCCC5)cc43)c2c1` (top concentration 50000 nM), the “selective drug sensitivity score” value is -1.82.

For `Cc1nn(C)c(COc2ccc(N3CCN(S(=O)(=O)N(C)C)CC3)cc2)c1-c1cccc2c(CCCOc3cccc4ccccc34)c(C(=O)O)n(CCN3CCOCC3)c12` (top concentration 50000 nM), the “selective drug sensitivity score” value amounted to 5.06.

For `C[C@H](Nc1ncnc2[nH]cnc12)c1cc2ccc(F)cc2nc1-c1ccccn1` [AMG319] (top concentration 1000 nM), the “selective drug sensitivity score” value came out at 0.68.

Regarding `C=CCn1c(=O)c2cnc(Nc3ccc(N4CCN(C)CC4)cc3)nc2n1-c1cccc(C(C)(C)O)n1` [AZD1775] (top concentration 10000 nM), the “selective drug sensitivity score” value worked out at 1.94.

With `NC(=O)Nc1cc(-c2cccc(F)c2)sc1C(=O)N[C@H]1CCCNC1` [AZD7762] (top concentration 1000 nM), the “selective drug sensitivity score” value stood at 0.3.

As for `Cc1cc([C@@H](C)Nc2ccccc2C(=O)O)c2nc(N3CCOCC3)cc(=O)n2c1` [AZD-6482] (top concentration 2500 nM), the “selective drug sensitivity score” value turned out to be 1.92.

`CN(C)Cc1c(C(=O)NCCOc2ccc(C(=O)NO)cc2)oc2ccccc12` [Abexinostat] (top concentration 10000 nM): the “selective drug sensitivity score” value was 6.36.

Take `S=C(NCc1ccc2c(c1)OCO2)N1CCN(c2ncnc3c2oc2ccccc23)CC1` [Amuvatinib] (top concentration 10000 nM): the “selective drug sensitivity score” value stood at 2.16.

As to `CC(=O)OC[C@H]1O[C@@H]([S-])[C@H](OC(C)=O)[C@@H](OC(C)=O)[C@@H]1OC(C)=O.CCP(CC)CC.[Au+]` [Auranofin] (top concentration 2500 nM), the “selective drug sensitivity score” value was 7.34.

For a further experiment, the system named is MN-60. The experiment is described as above. To be noted: 72 h.
Turning to `Cc1c(-c2ccc(N3CCc4cccc(C(=O)Nc5nc6ccccc6s5)c4C3)nc2C(=O)O)cnn1CC12CC3CC(CC(C3)C1)C2` (top concentration 1000 nM), the “selective drug sensitivity score” value was -2.26.

For `O=C(NOC[C@H](O)CO)c1ccc(F)c(F)c1Nc1ccc(I)cc1F` (top concentration 1000 nM), the “selective drug sensitivity score” value was -3.56.

Take `CO[C@@H](C)Cn1c(=O)n(C)c2cnc3ccc(-c4cncc(C(C)(C)O)c4)cc3c21` (top concentration 2500 nM): the “selective drug sensitivity score” value is 3.88.

Regarding `Cc1cccc(CC(=O)N2CCc3c2ccc(-c2cn(C)c4ncnc(N)c24)c3F)n1` (top concentration 2500 nM), the “selective drug sensitivity score” value came to 1.82.

With `CNC(=O)c1ccccc1Nc1nc(Nc2ccc3c(c2OC)CCC[C@H](N2CCN(CCO)CC2)C3)ncc1Cl` (top concentration 5000 nM), the “selective drug sensitivity score” value was -2.24.

As to `COc1cc2ncnc(Oc3cccc(NC(=O)Nc4cc(C(C)(C)C(F)(F)F)on4)c3)c2cc1OC` (top concentration 10000 nM), the “selective drug sensitivity score” value amounted to 0.

For the compound `C[C@@H](Oc1cc(-n2cnc3ccc(CN4CCN(C)CC4)cc32)sc1C(N)=O)c1ccccc1C(F)(F)F` (top concentration 10000 nM), the “selective drug sensitivity score” value worked out at 3.72.

As for `Nc1nccc(-c2c(-c3ccc(F)cc3)ncn2C2CCCCC2)n1` (top concentration 10000 nM), the “selective drug sensitivity score” value is 0.

For the compound `O=C(O)c1ccc(-c2c[nH]c3ncc(-c4ccccc4)cc23)cc1C1CCCC1` (top concentration 10000 nM), the “selective drug sensitivity score” value was -1.44.
